The text below walks through data of US6723747B2, “Substituted 6H-DiBenzo[c,h]chromenes as estrogenic agents” (Wyeth, priority 2001, dated 2004).

The target of one data set is T1, human ERβ (Homo sapiens, UniProt Q92731).
T1 construct: M214-Q530 of human ERβ; Flag (C); made in house; host or cells: E. coli BL21(DE3), clarified lysate
Briefly: Radioligand binding competition with [3H]-17β-estradiol, ERβ. As to conditions: human ERβ ligand binding domain, read-out: ER-β IC50.

The target of a further data set is T2, human ERα (Homo sapiens, UniProt P03372).
T2 construct: amino acids M250-V595 of human ERα; His (N); made in house; host or cells: E. coli BL21(DE3), clarified lysate
T2 sequence (P03372 250-595): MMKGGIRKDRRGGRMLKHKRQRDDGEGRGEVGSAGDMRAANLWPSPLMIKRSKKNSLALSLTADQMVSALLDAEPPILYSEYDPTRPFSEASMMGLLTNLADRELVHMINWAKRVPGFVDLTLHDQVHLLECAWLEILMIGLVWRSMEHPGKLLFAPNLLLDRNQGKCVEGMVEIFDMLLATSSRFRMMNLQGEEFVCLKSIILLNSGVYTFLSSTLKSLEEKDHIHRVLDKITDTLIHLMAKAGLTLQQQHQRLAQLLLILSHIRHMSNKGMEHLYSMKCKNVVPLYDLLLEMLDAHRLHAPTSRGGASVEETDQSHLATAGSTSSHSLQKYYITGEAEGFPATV
Description: Radioligand binding competition with [3H]-17β-estradiol, ERα. As to conditions: human ERα ligand binding domain, read-out: ER-α IC50.

The next data set deals with 129 SvE mice. Briefly: Mouse uterotrophic test procedure (Procedure 2). The format is in vivo. The settings on record: 50 mg/kg subcutaneously, 4 days, immature mice. As to the method:
Procedure 2: Sexually immature (18 days of age) 129 SvE mice were obtained from Taconic and provided unrestricted access to a casein-based diet (Purina Mills 5K96C) and water. On day 22, 23, 24 and 25 the mice were dosed subcutaneously with compound or vehicle (corn oil). There were six mice/group and they were euthanized approximately 6 hours after the last injection by CO2 asphyxiation and pneumothorax. Uteri were removed and weighed after trimming associated fat and expressing any internal fluid. The following results (Table (2)) were obtained for representative compounds from the invention.

For data set [1], the system named is progesterone receptor mRNA in the preoptic area of the rat brain. Briefly: Progesterone receptor mRNA regulation test procedure. Type of data set: in vivo. As to conditions: 10 mg/kg, vehicle 4.3 ± 1.5. The source says: This test procedure can be used to evaluate the estrogenic or antiestrogenic activity of compounds from this invention [Shughrue, et al., Endocrinology 138: 5476-5484 (1997)].

The subject of a further data set is casein kinase II mRNA. Briefly: Mammary end bud test procedure (rat mammotrophic assay). The format is in vivo. The settings on record: 0.1 mg/kg sc + progesterone 30 mg/kg; ovariectomized rats; vehicle 1.61 ± 0.36. As to the method:
Estrogens are required for full ductal elongation and branching of the mammary ducts, and the subsequent development of lobulo-alveolar end buds under the influence of progesterone. In this test procedure, the mammotrophic activity of selected compounds of the invention was evaluated according to the following standard pharmacological test procedure. Twenty-eight day old Sprague-Dawley rats (Taconic Farms, Germantown, N.Y.) were ovariectomized and rested for nine days. […] For the final three days, rats were also dosed subcutaneously with progesterone (30 mg/kg). On the seventh day, rats were euthanised and a mammary fat pad excised. This fat pad was analyzed for casein kinase II mRNA as a marker of end bud proliferation. Casein kinase II mRNA was anlayzed by real-time RT-PCR. Briefly, RNA was isolated following Trizol (GibcoBRL, Grand Island, N.Y.) according to the manufacture's directions, Samples were treated with DNAse I using DNA-free kit (Ambion), and casein kinase II mRNA levels were measured by real-time RT-PCR using the Taqman Gold procedure (PE Applied Biosystems). […] Casein kinase II mRNA levels were normalized to 18s ribosomal RNA contained within each sample reaction using primers and probe supplied by PE Applied Biosystems. The following results were obtained for an example of the invention (Table (4)).

[2] abbreviates: second experiment, vehicle 10.3 ± 0.8.

Molecules are shown by their SMILES.

T1 sequence (Q92731 214-530): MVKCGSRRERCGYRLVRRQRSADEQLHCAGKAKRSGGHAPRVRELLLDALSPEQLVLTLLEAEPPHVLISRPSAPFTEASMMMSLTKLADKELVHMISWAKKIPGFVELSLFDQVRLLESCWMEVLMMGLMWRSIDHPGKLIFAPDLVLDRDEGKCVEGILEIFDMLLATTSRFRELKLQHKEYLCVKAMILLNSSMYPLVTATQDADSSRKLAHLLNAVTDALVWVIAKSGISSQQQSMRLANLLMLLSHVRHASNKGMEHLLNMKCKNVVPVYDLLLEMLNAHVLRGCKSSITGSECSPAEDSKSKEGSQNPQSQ

Consider `Oc1ccc2c(c1)COc1c-2cc(Br)c2cc(O)ccc12` [Example 1h, 12-Bromo-6H-dibenzo[c,h]chromene-2,8-diol], for which the melting point is 178 to 180 °C (dec.). Further, the IC50 on human ERβ was determined as 0.9 nM. Further, at human ERα, the IC50 came to 26 nM.
Consider `CCCc1cc2c(c3ccc(O)cc13)OCc1cc(O)ccc1-2` [Example 1t, 12-Propyl-6H-dibenzo[c,h]chromene-2,8-diol], for which the melting point lay within 86 to 95 °C. Moreover, the 50% inhibitory concentration (IC50) on human ERβ came to 11 nM. Also, the IC50 at human ERα amounted to 160 nM.
With `Oc1ccc2c(c1)COc1c-2cc(Br)c2c(O)cccc12` [Example 1w, 12-Bromo-6H-dibenzo[c,h]chromene-1,8-diol], the figures for the IC50 at human ERβ and at human ERα were 1.4 nM and 10 nM, respectively.
Turning to `Oc1ccc2c(c1)COc1c-2cc(Cl)c2c(O)cccc12` [Example 1v, 12-Chloro-6H-dibenzo[c,h]chromene-1,8-diol], the IC50 at human ERβ turned out to be 0.9 nM; on human ERα, 4.5 nM.
Compound `Oc1ccc2c3c(cc(Br)c2c1)-c1cc(F)c(O)cc1CO3` [Example 1j, 12-Bromo-9-fluoro-6H-dibenzo[c,h]chromene-2,8-diol] had a melting point of 194 to 197 °C. Moreover, the IC50 at human ERβ stood at 2 nM. In addition, the IC50 on human ERα stood at 77 nM.
On to `Oc1ccc2c(c1)COc1c-2cc(-c2ccsc2)c2cc(O)ccc12` [Example 1q, 12-Thien-3-yl—6H-dibenzo[c,h]chromene-2,8-diol], for which the melting point was in the range of 179 to 182 °C. The IC50 at human ERβ is 29.2 nM. Moreover, the IC50 at human ERα amounted to 154 nM.
Turning to `CCc1cc2c(c3ccc(O)cc13)OCc1cc(O)ccc1-2` [Example 1p, 12-Ethyl-6H-dibenzo[c,h]chromene-2,8-diol], the melting point fell in the range of 184 to 192 °C. Also, the IC50 on human ERβ is 2.9 nM. The IC50 on human ERα turned out to be 44 nM.
The compound `Oc1ccc2c(c1)COc1c-2ccc2c(O)cccc12` [Example 1u, 6H-dibenzo[c,h]chromene-1,8-diol] showed a melting point of 213 to 214 °C. Moreover, the IC50 on human ERβ was found to be 1.4 nM. The IC50 at human ERα was 17 nM.
Consider `Cc1cc2c(c3ccc(O)cc13)OCc1cc(O)ccc1-2` [Example 1n, 12-Methyl-6H-dibenzo[c,h]chromene-2,8-diol], for which the melting point is 220 to 224 °C (dec.). In addition, on human ERβ, the IC50 came out at 2.7 nM. Moreover, on human ERα, the IC50 is 102 nM.
For the compound `N#Cc1cc2c(c3ccc(O)cc13)OCc1cc(O)c(F)cc1-2` [Example 1e, 9-fluoro-2,8-dihydroxy-6H-dibenzo[c,h]chromene-12-carbonitrile], the melting point was over 250 °C. Also, the IC50 on human ERβ is 19 nM. The IC50 at human ERα is 1230 nM.
As for `Oc1ccc2c(c1)COc1c-2ccc2c(Cl)c(O)ccc12` [Example 1g, 1-Chloro-6H-dibenzo[c,h]chromene-2,8-diol], the melting point fell in the range of 216 to 218 °C. Further, the IC50 at human ERβ was 2.7 nM. Also, the IC50 on human ERα worked out at 74 nM.
Consider `Oc1ccc2c(c1)COc1c-2cc(Cl)c2cc(O)ccc12` [Example 1i, 12-Chloro-6H-dibenzo[c,h]chromene-2,8-diol], for which the melting point is 212 to 216 °C (dec.). Also, the IC50 at human ERβ turned out to be 1.1 nM. Further, the IC50 at human ERα amounted to 17 nM. Moreover, the “mean uterine weight ± SEM” value in the data set on 129 SvE mice (setting [2]) came out at 28.9 ± 2.0 mg. Besides, the “Progesterone receptor mRNA (mean ± stdev)” value in data set [1] was 57.5 ± 14.0 arbitrary units.
Turning to `N#Cc1cc2c(c3cccc(O)c13)OCc1cc(O)ccc1-2` [Example 1x, 1,8-Di hydroxy-6H-di benzo[c,h]chromene-12-carbonitrile], the half-maximal inhibitory concentration (IC50) was found to be 1.5 nM at human ERβ and 86 nM on human ERα.
The compound `Oc1ccc2c(c1)COc1c-2cc(-c2cccs2)c2cc(O)ccc12` [Example 1r, 12-Thien-2-yl-6H-dibenzo[c,h]chromene-2,8-diol] had a melting point of 191 to 193 °C. For the same compound, on human ERβ, the IC50 amounted to 48.3 nM. Moreover, the IC50 at human ERα was 217 nM.
The matching figures for `Oc1ccc2c(c1)COc1c-2ccc2ccccc12` [Example 1c, 6H-Dibenzo[c,h]chromen-8-ol]: 192 to 194 °C, 79.7 nM and 460 nM.
As for `C=Cc1cc2c(c3ccc(O)cc13)OCc1cc(O)ccc1-2` [Example 1o, 12-Vinyl-6H-dibenzo[c,h]chromene-2,8-diol], the melting point is over 220 °C. For the same compound, the IC50 on human ERβ was 2.3 nM. In addition, on human ERα, the IC50 was 81 nM.
`N#Cc1cc2c(c3ccc(O)c(Cl)c13)OCc1cc(O)ccc1-2` [Example 1f, 1-Chloro-2,8-dihydroxy-6H-dibenzo[c,h]chromene-12-carbonitrile]: the melting point was over 250 °C. Also, at human ERβ, the IC50 came out at 3.5 nM. For the same compound, the IC50 on human ERα is 156 nM.
With `Oc1ccc2c(c1)COc1c-2ccc2c(O)c(Cl)ccc12` [Example 1y, 2-Chloro-6H-dibenzo[c,h]chromene-1,8-diol], the melting point was 181 to 182 °C (dec.). Moreover, the half-maximal inhibitory concentration (IC50) at human ERβ turned out to be 1.65 nM. Also, the IC50 at human ERα amounted to 17.6 nM.
The matching figures for `Oc1ccc2c3c(cc(Cl)c2c1)-c1cc(F)c(O)cc1CO3` [Example 1k, 12-Chloro-9-fluoro-6H-dibenzo[c,h]chromene-2,8-diol]: 215 to 220 °C (dec.), 2 nM and 27 nM.
On to `C[C@]12CC[C@@H]3c4ccc(O)cc4CC[C@H]3[C@@H]1CC[C@@H]2O` [17β-estradiol, reference compound], for which the “mean uterine weight ± SEM” value in the data set on 129 SvE mice (first experiment, vehicle 9.5 ± 0.3) is 46.7 ± 2.5 mg; with 129 SvE mice (setting [2]), 45.3 ± 1.9 mg. The “Casein kinase II mRNA/18S rRNA (mean ± SEM)” value with casein kinase II mRNA is recorded as 39.0 ± 5.4.
`COc1c(Cl)c2c(c3ccc(O)cc13)OCc1cc(O)ccc1-2` [Example 1m, 11-Chloro-12-methoxy-6H-dibenzo[c,h]chromene-2,8-diol]: the values for the IC50 on human ERβ and on human ERα were 0.27 nM and 10.4 nM, respectively.
For `Oc1ccc2c(c1)COc1c-2ccc2cc(O)ccc12` [Example 1a, 6H-Dibenzo[c,h]chromene-2,8-diol], the melting point is 248 to 252 °C (dec.). The IC50 on human ERβ was 3.3 nM. The IC50 on human ERα was found to be 74 nM.
In the same order, the values of `COc1cc2c(c3ccc(O)cc13)OCc1cc(O)ccc1-2` [Example 1l, 12-Methoxy-6H-dibenzo[c,h]chromene-2,8-diol] are 224 °C (dec.), 16 nM and 147 nM.
Regarding `Oc1ccc2c3c(ccc2c1)-c1cc(F)c(O)cc1CO3` [Example 1b, 9-Fluoro-6H-dibenzo[c,h]chromene-2,8-diol], the melting point was 230 to 231 °C (dec.). Moreover, the IC50 at human ERβ came out at 1.8 nM. Moreover, on human ERα, the IC50 is 20 nM.
Turning to `Oc1ccc2c(c1)COc1c-2ccc2c(O)ccc(Cl)c12` [Example 1z, 4-chloro-6H-dibenzo[c,h]chromene-1,8-diol], the IC50 at human ERβ turned out to be 0.8 nM; on human ERα, 10 nM.
In turn, `CCCCc1cc2c(c3ccc(O)cc13)OCc1cc(O)ccc1-2` [Example 1s, 12-Butyl-6H-dibenzo[c,h]chromene-2,8-diol] returned a melting point of 118 to 121 °C. Moreover, the IC50 on human ERβ was found to be 3 nM. On human ERα, the IC50 is 71 nM.
